From US20210221848A1, “POLYMYXIN DERIVATIVES AND THEIR USE IN COMBINATION THERAPY TOGETHER WITH DIFFERENT ANTIBIOTICS” (priority 2014, published 2021)

Experiments:
[1] = tested on: P. aeruginosa strains with elevated MICs to Polymyxin B; experiment: MIC against strains with elevated MICs to Polymyxin B; format: cell-based, Pseudomonas aeruginosa; conditions: Table 6D; for MIC P. aeruginosa 065: strain 065, elevated MIC to Polymyxin B; for MIC P. aeruginosa 067: strain 067, elevated MIC to Polymyxin B; for MIC P. aeruginosa 066: strain 066, elevated MIC to Polymyxin B
Method in brief: (§1)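 Inoculum was a direct suspension of colonies from an 18-24 hour Mueller-Hinton agar plate, adjusted to the 0.5 McFarland standard. Duplicate assays; the lower value was reported when duplicates differed by less than 2-fold, otherwise the run was invalid. Repeat-tested compounds give the modal MIC.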

A. baumannii = conditions: sole activity, Table 6C
[2] = tested on: A. baumanii strains with elevated MICs to Polymyxin B; experiment: MIC against strains with elevated MICs to Polymyxin B; format: cell-based, Acinetobacter baumannii; conditions: Table 6D; for MIC A. baumannii 053: strain 053, elevated MIC to Polymyxin B; for MIC A. baumannii 056: strain 056, elevated MIC to Polymyxin B; for MIC A. baumannii 068: strain 068, elevated MIC to Polymyxin B; for MIC A. baumannii 070: strain 070, elevated MIC to Polymyxin B
Method in brief: as §1

[3] = tested on: K. pneumoniae strains with elevated MICs to Polymyxin B; experiment: as above; format: cell-based, Klebsiella pneumoniae; conditions: Table 6D; for MIC K. pneumoniae 062: strain 062, elevated MIC to Polymyxin B; for MIC K. pneumoniae 063: strain 063, elevated MIC to Polymyxin B; for MIC K. pneumoniae 064: strain 064, elevated MIC to Polymyxin B; for MIC K. pneumoniae 655: strain 655, elevated MIC to Polymyxin B
Method in brief: as §1

K. pneumoniae = conditions: sole activity, Table 6C
E. coli = conditions: sole activity, Table 6C
P. aeruginosa = conditions: sole activity, Table 6C
[4] = tested on: E. coli strains with elevated MICs to Polymyxin B; experiment: MIC against strains with elevated MICs to Polymyxin B; format: cell-based, Escherichia coli; conditions: Table 6D; for MIC E. coli 058: strain 058, elevated MIC to Polymyxin B; for MIC E. coli 059: strain 059, elevated MIC to Polymyxin B; for MIC E. coli 060: strain 060, elevated MIC to Polymyxin B; for MIC E. coli 061: strain 061, elevated MIC to Polymyxin B
Method in brief: as §1

Substance	MIC P. aeruginosa 065 [1]	MIC P. aeruginosa 067 [1]	MIC, A. baumannii ATCC BAA-747 (A. baumannii)	MIC, A. baumannii NCTC 13424 (A. baumannii)	MIC A. baumannii 053 [2]	MIC A. baumannii 056 [2]	MIC A. baumannii 068 [2]	MIC A. baumannii 070 [2]	MIC K. pneumoniae 062 [3]	MIC K. pneumoniae 063 [3]	MIC K. pneumoniae 064 [3]	MIC K. pneumoniae 655 [3]	MIC, K. pneumoniae ATCC 4352 (K. pneumoniae)	MIC, E. coli ATCC 25922 (E. coli)	MIC, P. aeruginosa ATCC 27853 (P. aeruginosa)	MIC, P. aeruginosa CCUG 59347 (P. aeruginosa)	MIC E. coli 058 [4]	MIC E. coli 059 [4]	MIC E. coli 060 [4]	MIC E. coli 061 [4]	further results
(trans-5-(isobutyl- piperidine)-3- carbonyl L-Thr- D-Ser-polymyxin B heptapeptide [Example D82]	0.5 micrograms/mL	64 micrograms/mL	0.06 micrograms/mL	0.125 micrograms/mL	16 micrograms/mL	8 micrograms/mL	32 micrograms/mL	32 micrograms/mL	32 micrograms/mL	16 micrograms/mL	1 micrograms/mL	8 micrograms/mL	0.06 micrograms/mL	0.125 micrograms/mL	2 micrograms/mL	4 micrograms/mL	4 micrograms/mL	4 micrograms/mL	4 micrograms/mL	8 micrograms/mL	
(trans-5-(isobutyl- piperidine)-3- carbonyl L-Thr-L- Dap-polymyxin E heptapeptide [Example D77]	4 micrograms/mL	128 micrograms/mL	0.06 micrograms/mL	0.06 micrograms/mL	64 micrograms/mL		4 micrograms/mL	4 micrograms/mL	32 micrograms/mL	16 micrograms/mL	4 micrograms/mL	16 micrograms/mL	0.125 micrograms/mL	0.06 micrograms/mL	0.5 micrograms/mL	1 micrograms/mL	2 micrograms/mL	4 micrograms/mL	1 micrograms/mL	4 micrograms/mL	MIC P. aeruginosa 066 [1]: 2 micrograms/mL; MIC, K. pneumoniae ATCC BAA-2146 (K. pneumoniae): 0.125 micrograms/mL; MIC, E. coli NCTC 13441 (E. coli): 0.06 micrograms/mL
cis-5- (benzylcarbamoyl) piperidine-3- carbonyl L-Thr-L- Dap-polymyxin B heptapeptide [Example D75]	4 micrograms/mL		0.06 micrograms/mL	0.125 micrograms/mL	64 micrograms/mL	8 micrograms/mL	16 micrograms/mL	32 micrograms/mL	128 micrograms/mL	64 micrograms/mL	8 micrograms/mL	64 micrograms/mL	0.06 micrograms/mL	0.06 micrograms/mL	0.5 micrograms/mL	0.5 micrograms/mL	4 micrograms/mL	8 micrograms/mL	4 micrograms/mL	8 micrograms/mL	MIC P. aeruginosa 066 [1]: 8 micrograms/mL; MIC, K. pneumoniae ATCC BAA-2146 (K. pneumoniae): 0.125 micrograms/mL; MIC, E. coli NCTC 13441 (E. coli): 0.125 micrograms/mL
cis-5- (benzylcarbamoyl) piperidine-3- carbonyl Polymyxin B nonapeptide [Example D66]	16 micrograms/mL	>256 micrograms/mL	0.25 micrograms/mL	0.25 micrograms/mL	>256 micrograms/mL	128 micrograms/mL	32 micrograms/mL		128 micrograms/mL	64 micrograms/mL	32 micrograms/mL		0.125 micrograms/mL	0.125 micrograms/mL	0.5 micrograms/mL	0.5 micrograms/mL	8 micrograms/mL	16 micrograms/mL	8 micrograms/mL	32 micrograms/mL	MIC P. aeruginosa 066 [1]: 32 micrograms/mL; MIC, K. pneumoniae ATCC BAA-2146 (K. pneumoniae): 0.06 micrograms/mL; MIC, E. coli NCTC 13441 (E. coli): 0.125 micrograms/mL
